Data as given in PMC9501014, “Amaryllidaceae-Type Alkaloids from Pancratium maritimum: Apoptosis-Inducing Effect and Cell Cycle Arrest on Triple-Negative Breast Cancer Cells” (Molecules, 2022).
Where two headings read alike, the source gives them in different places.

Experiments:
[1] = tested on: Bax, Bcl-xL, p21, p53 protein expression in MDA-MB-231 cells; assay: Western blot analysis of protein expression levels; format: cell-based, human; conditions: 16 µM, 48 h
Description: Once compound 7 induced cancer cell death by apoptosis, we next explored the molecular pathways involved in its apoptotic effect. For that, some apoptotic-related proteins were checked in MDA-MB-231 cells treated with 16 µM of compound 7 for 48 h (Figure 2E,F).
MDA-MB-231 cells were seeded in 6-well plates at a density of 1.5 × 10^5 cells/well for 24 h, followed by treatment with 16 µM of compound 7. Protein extracts were quantified using the Bradford reagent (Sigma-Aldrich). Proteins were run in SDS-PAGE and transferred to a Whatman nitrocellulose membrane from Protan (VWR, Carnaxide, Portugal). After blocking, proteins were identified using specific primary antibodies: rabbit polyclonal anti-p21 (Santa Cruz Biotechnology, Dallas, […], USA), rabbit polyclonal anti-Bax, and rabbit monoclonal anti-Bcl-xL (Invitrogen, Waltham, MA, USA), followed by the respective anti-mouse/anti-rabbit HRP-conjugated secondary antibodies (Santa Cruz Biotechnology). GAPDH was used as a loading control. The signal was detected with the ECL Amersham kit from GE Healthcare (VWR, Carnaxide, Portugal). Two detection methods were used: the Kodak GBX developer and fixer (Sigma-Aldrich) or the ChemiDoc™ XRS Imaging System from Bio-Rad Laboratories (Amadora, Portugal).

[2] = tested on: MDA-MB-231 cells; assay: Combination therapy with etoposide (SRB, CompuSyn), MDA-MB-231; format: cell-based, human
Description: (§1) The effect of 1.5 μM of compound 7 in combination with a range of concentrations of etoposide was evaluated after 48 h of treatment using CompuSyn software to calculate the combination index (CI) values for each combined treatment: CI < 1, synergy; 1 < CI < 1.1, additive effect; CI > 1.1, antagonism.
(§2) The effect of combined treatments on cell proliferation was analyzed by SRB assay. For each combination, the combination index (CI) values were calculated using the CompuSyn Software version 1.0; CI values < 1, 1 < CI < 1.1, and >1.1 indicate synergistic, additive, and antagonistic effects, respectively.

[3] = tested on: MCF-7 cells; assay: Sulforhodamine B antiproliferative assay, MCF-7; format: cell-based, human
Description: (§3) The antiproliferative effect of the isolated compounds (1–11) was investigated by the sulforhodamine B assay against human triple-negative breast cancer cell lines (MDA-MB-468 and MDA-MB-231) and breast ductal carcinoma cells (MCF-7) and the non-tumorigenic fibroblast (HFF-1) and breast cell lines (MCF12A). The IC50 values were determined after 48 h of treatment (Table 1).
(§4) Human breast adenocarcinoma MDA-MB-231, MDA-MB-468, and MCF-7 cell lines and non-tumorigenic foreskin fibroblast (HFF-1) and breast (MCF12A) cell lines were purchased from American Type Culture Collection (ATCC, Rockville, MD, USA). All cancer cell lines, except MCF12A, were routinely cultured in RPMI-1640 medium with glutamine from Corning (VWR, Carnaxide, Portugal) supplemented with 10% fetal bovine serum (FBS) from Biowest (Labclinics, Barcelona, Spain). MCF12A cells were cultured in a 1:1 mixture of Dulbecco’s modified Eagle’s medium and Ham’s F12 medium, 20 ng/mL human epidermal growth factor, 100 ng/mL cholera toxin, 0.01 mg/mL bovine insulin, and 500 ng/mL hydrocortisone and supplemented with 10% FBS. All cells were maintained in a humidified incubator at 37 °C with 5% CO2. All cells were routinely tested for mycoplasma contamination using the MycoAlertTM PLUS detection kit (Lonza, Basel, Switzerland).
(§5) Human cell lines were seeded in 96-well plates at a density of 5.0 × 10^3 (MDA-MB-231, MCF-7, HFF-1, and MCF12A) and 7.5 × 10^3 (MDA-MB-468) cells/well and allowed to adhere for 24 h. Cells were treated with serial dilutions of compounds (ranging from 0.1 to 40 μM) for an additional 48 h. Effect on cell proliferation was measured by sulforhodamine B assay, as described in [33], and the half-maximal inhibitory concentration (IC50) was then determined for each cell line using the GraphPad Prism software version 7.0 (La Jolla, CA, USA).

[4] = tested on: MDA-MB-468 cells; assay: Sulforhodamine B antiproliferative assay, MDA-MB-468; format: cell-based, human
Description: as §3, §4, §5

[5] = tested on: breast cancer cell lines (MDA-MB-231, MDA-MB-468, MCF-7); assay: Sulforhodamine B assay, all breast cancer cell lines; format: cell-based; conditions: Homo sapiens; range over the four alkaloids and MDA-MB-231, MDA-MB-468, MCF-7; read-out: IC50 values against all breast cancer cell lines
Description: Aiming to find Amaryllidaceae alkaloids against breast cancer, including the highly aggressive triple-negative breast cancer, the phytochemical study of Pancratium maritimum was carried out. Several Amaryllidaceae-type alkaloids, bearing scaffolds of the haemanthamine-, homolycorine-, lycorine-, galanthamine-, and tazettine-type were isolated (3–11), along with one alkamide (2) and a phenolic compound (1). The antiproliferative effect of compounds (1–11) was evaluated by the sulforhodamine B assay against triple-negative breast cancer cell lines MDA-MB-231 and MDA-MB-468, breast cancer cells MCF-7, and the non-malignant fibroblast (HFF-1) and breast (MCF12A) cell lines. […] The homolycorine-type alkaloid 7 was selected for further investigation in MDA-MB-231 cells. In the annexin-V assay, compound 7 increased cell death by apoptosis, which was substantiated, in western blot analyses, by the increased expression of the pro-apoptotic protein Bax, and the decreased expression of the anti-apoptotic protein Bcl-xL. Consistently, it further stimulated mitochondrial reactive oxygen species (ROS) generation. The antiproliferative effect of compound 7 was also associated with G2/M cell cycle arrest, which was supported by an increase in the p21 protein expression levels.
as §5

[6] = tested on: MDA-MB-231 cells; assay: Sulforhodamine B antiproliferative assay, MDA-MB-231; format: cell-based, human; conditions: for IC50: sulforhodamine B assay, 48 h of treatment, read-out: IC50 MDA-MDB-231 (A)
Description: as §3, §4, §5

[7] = tested on: HFF-1 cells; assay: Combination therapy with etoposide (SRB, CompuSyn), HFF-1; format: cell-based, human; conditions: for Combination Index HFF-1: 48 h
Description: as §1, §2

[8] = tested on: HFF-1 cells; assay: Sulforhodamine B antiproliferative assay, non-tumorigenic fibroblast HFF-1; format: cell-based; conditions: Homo sapiens, 48 h of treatment, read-out: IC50 HFF-1 (E)
Description: as §3, §4, §5

COc1cc2c(cc1O)C(=O)OC1[C@@H](O)C=C3CCN(C)C3[C@]21O (stereo partly drawn) [Compound 7, 2α-10bα-dihydroxy-9-O-demethylhomolycorine]
Bax protein levels ([1]; MDA-MB-231): increased levels
Bcl-xL protein levels ([1]; MDA-MB-231): reduced levels
p21 protein levels ([1]; MDA-MB-231): increased the p21 protein levels
p53 protein expression levels ([1]; MDA-MB-231, data not shown): did not interfere
Combination Index MDA-MB-231 ([2]; 1.5 µM compound 7 + etoposide 0.4 µM, 48 h): 1.23
Combination Index MDA-MB-231 ([2]; 1.5 µM compound 7 + etoposide 0.8 µM, 48 h): 0.87
Combination Index MDA-MB-231 ([2]; 1.5 µM compound 7 + etoposide 1.5 µM, 48 h): 0.81
Combination Index MDA-MB-231 ([2]; 1.5 µM compound 7 + etoposide 3 µM, 48 h): 0.86
type of interaction with etoposide, MDA-MB-231 ([2]; 1.5 µM compound 7, etoposide 0.8, 1.5 and 3 µM): synergistic effects
effect on growth inhibitory effect of etoposide ([2]; 1.5 µM compound 7, etoposide 0.8, 1.5 and 3 µM, 48 h): significantly increased the growth inhibitory effect of etoposide
IC50 ([3]; Homo sapiens, MCF7, 48 h, sulforhodamine B assay, 48 h of treatment, read-out: IC50 MCF-7 (C)): 6.8 ± 0.2 µM
SI D/C ([3]; selectivity index, MCF12A vs MCF-7): 0.82
IC50 ([4]; Homo sapiens, MDA-MB-468, 48 h, sulforhodamine B assay, 48 h of treatment): 16.3 ± 1.3 µM
SI E/B ([4]; selectivity index, HFF-1 vs MDA-MB-468): 0.81
SI D/B ([4]; selectivity index, MCF12A vs MDA-MB-468): 0.34
IC50 [5]: 0.73 to 16.3 µM
effect of compound alone on cancer cell growth ([6]; 1.5 µM): no significant effect on cancer cell growth
IC50 ([6]; Homo sapiens, MDA-MB-231, 48 h): 8.02 µM
SI E/A ([6]; selectivity index, HFF-1 vs MDA-MB-231): 1.65
SI D/A ([6]; selectivity index, MCF12A vs MDA-MB-231): 0.69
IC50 [6]: 8 ± 1.68 µM
Combination Index HFF-1 ([7]; 1.5 µM compound 7 + etoposide 0.4 µM): 1.19
Combination Index HFF-1 ([7]; 1.5 µM compound 7 + etoposide 0.8 µM): 1.34
Combination Index HFF-1 ([7]; 1.5 µM compound 7 + etoposide 1.5 µM): 1.12
Combination Index HFF-1 ([7]; 1.5 µM compound 7 + etoposide 3 µM): 1.09
type of interaction with etoposide, HFF-1 ([7]; same experimental conditions as in MDA-MB-231 cells): no synergistic effects
IC50 [8]: 13.3 ± 3.28 µM
